Experimental data taken from US6753345B2, “7-hexanolytaxol and methods for preparing the same” (Hauser, Inc., priority 1998, dated 2004).
Converted amounts (≈) assume the structure as drawn. Like-named read-outs stand apart in the source and are kept apart here.

Key:
26 cell lines = assay: 26 cell line growth inhibition screen, sulforhodamine stain; type: cell-based; conditions: 48 h
HL-60(TB) [1] = conditions: HL-60(TB) (Leukemia); PG=0; 48 hour incubation
LOX-IMVI = LOX-IMVI (Melanoma); PG=0; 48 hour incubation
HL-60(TB) [2] = assay: cells; conditions: Homo sapiens, HL-60, 48 h
CCRF-CEM = assay: SRB cytotoxicity screening assay (Leukemia); conditions: for Log10 TGI: PG=0
OVCAR-4 = assay: SRB cytotoxicity screening assay (Ovarian)
MOLT-4 = assay: SRB cytotoxicity screening assay (Leukemia)
MALME-3M = assay: SRB cytotoxicity screening assay (Melanoma)
M14 = assay: SRB cytotoxicity screening assay (Melanoma)
UACC-62 = assay: SRB cytotoxicity screening assay (Melanoma)
SF-539 = assay: SRB cytotoxicity screening assay (CNS Cancer)
U251 = assay: SRB cytotoxicity screening assay (CNS Cancer)
HCC-2998 = assay: SRB cytotoxicity screening assay (Colon Cancer)
KM12 = assay: SRB cytotoxicity screening assay (Colon Cancer)
SW-620 = assay: SRB cytotoxicity screening assay (Colon Cancer)
786-0 = assay: SRB cytotoxicity screening assay (Renal Cancer)
TK-10 = assay: SRB cytotoxicity screening assay (Renal Cancer)
MCF7 = assay: SRB cytotoxicity screening assay (Breast Cancer)
MCF7/ADR-RES = assay: SRB cytotoxicity screening assay (Breast Cancer)
MDA-MB-231/ATCC = assay: SRB cytotoxicity screening assay (Breast Cancer)
DU-145 = assay: SRB cytotoxicity screening assay (Prostate Cancer)
EKVX = assay: SRB cytotoxicity screening assay (Non-Small Cell Lung Cancer)
HOP-62 = assay: as above
NCI-H226 = assay: as above
NCI-H522 = assay: as above
[3] = Homo sapiens, MCF7, 48 h, read-out: Log10 GI50 (converted)
[4] = Homo sapiens, MCF7, 48 h, read-out: Log10 LC50 (converted)

CCCCCC(=O)O[C@H]1C[C@H]2OC[C@@]2(OC(C)=O)[C@H]2[C@H](OC(=O)c3ccccc3)[C@]3(O)C[C@H](OC(=O)[C@H](O)[C@@H](NC(=O)c4ccccc4)c4ccccc4)C(C)=C([C@@H](OC(C)=O)C(=O)[C@]12C)C3(C)C [7-hexanoyltaxol]
IC50 (26 cell lines; read-out: Mean IC50 (26 cell line Mean Growth inhibition IC50 value)): 8 ng/mL (≈ 8.4 nM) | IC50 (26 cell lines; read-out: Min IC50 (lowest observed IC50 value in 26 cell line screen)): 1 ng/mL (≈ 1.05 nM) | Log10 TGI (HL-60(TB) [1]): <−8.00 molar | Log10 TGI (LOX-IMVI): −4.68 molar | GI50 (HL-60(TB) [2]; read-out: Log10 GI50 (converted)): < 10 nM | CC50 (HL-60(TB) [2]; read-out: Log10 LC50 (converted)): > 100000 nM | Log10 TGI (CCRF-CEM; CCRF-CEM (Leukemia), 48 hour incubation): −6.1 molar | Log10 TGI (CCRF-CEM; CCRF-CEM (Leukemia), 48 hour incubation, listed as 7-Hexanoyltaxol): <−8.00 molar | Log10 LC50 (CCRF-CEM; CCRF-CEM (Leukemia), PG=−50, 48 hour incubation): >−4.00 molar | GI50 (CCRF-CEM; Homo sapiens, CCRF-CEM, 48 h, read-out: Log10 GI50 (converted)): < 10 nM | CC50 (CCRF-CEM; Homo sapiens, CCRF-CEM, 48 h, read-out: Log10 LC50 (converted)): > 100000 nM | IC50 (CCRF-CEM; Homo sapiens, CCRF-CEM, read-out: concentration necessary to achieve primary growth inhibition (percentage growth +50)): ~100 nM | GI50 (OVCAR-4; Homo sapiens, OVCAR-4, 48 h, read-out: Log10 GI50 (converted)): 1580 nM | CC50 (OVCAR-4; Homo sapiens, OVCAR-4, 48 h, read-out: Log10 LC50 (converted)): > 100000 nM | Log10 TGI (OVCAR-4; OVCAR-4 (Ovarian), PG=0, 48 hour incubation): −4.21 molar | GI50 (MOLT-4; Homo sapiens, MOLT-4, 48 h, read-out: Log10 GI50 (converted)): < 10 nM | CC50 (MOLT-4; Homo sapiens, MOLT-4, 48 h, read-out: Log10 LC50 (converted)): > 100000 nM | Log10 TGI (MOLT-4; MOLT-4 (Leukemia), PG=0, 48 hour incubation): −4.69 molar | GI50 (MALME-3M; Homo sapiens, Malme-3M, 48 h, read-out: Log10 GI50 (converted)): < 10 nM | CC50 (MALME-3M; Homo sapiens, Malme-3M, 48 h, read-out: Log10 LC50 (converted)): 81300 nM | Log10 TGI (MALME-3M; MALME-3M (Melanoma), PG=0, 48 hour incubation): −4.65 molar | GI50 (M14; Homo sapiens, M14, 48 h, read-out: Log10 GI50 (converted)): < 10 nM | CC50 (M14; Homo sapiens, M14, 48 h, read-out: Log10 LC50 (converted)): 1580 nM | Log10 TGI (M14; M14 (Melanoma), PG=0, 48 hour incubation): −7.94 molar | GI50 (UACC-62; Homo sapiens, UACC-62, 48 h, read-out: Log10 GI50 (converted)): < 10 nM | CC50 (UACC-62; Homo sapiens, UACC-62, 48 h, read-out: Log10 LC50 (converted)): > 100000 nM | Log10 TGI (UACC-62; UACC-62 (Melanoma), PG=0, 48 hour incubation): −4.78 molar | GI50 (SF-539; Homo sapiens, SF-539, 48 h, read-out: Log10 GI50 (converted)): < 10 nM | CC50 (SF-539; Homo sapiens, SF-539, 48 h, read-out: Log10 LC50 (converted)): 1510 nM | Log10 TGI (SF-539; SF-539 (CNS Cancer), PG=0, 48 hour incubation): −7.32 molar | GI50 (U251; Homo sapiens, U-251, 48 h, read-out: Log10 GI50 (converted)): < 10 nM | CC50 (U251; Homo sapiens, U-251, 48 h, read-out: Log10 LC50 (converted)): 32400 nM | Log10 TGI (U251; U251 (CNS Cancer), PG=0, 48 hour incubation): −4.98 molar | Log10 TGI (HCC-2998; HCC-2998 (Colon Cancer), PG=0, 48 hour incubation): −7.35 molar | GI50 (HCC-2998; Homo sapiens, HCC 2998, 48 h, read-out: Log10 GI50 (converted)): < 10 nM | CC50 (HCC-2998; Homo sapiens, HCC 2998, 48 h, read-out: Log10 LC50 (converted)): 8320 nM | GI50 (KM12; Homo sapiens, KM12, 48 h, read-out: Log10 GI50 (converted)): < 10 nM | CC50 (KM12; Homo sapiens, KM12, 48 h, read-out: Log10 LC50 (converted)): > 100000 nM | Log10 TGI (KM12; KM12 (Colon Cancer), PG=0, 48 hour incubation): −4.90 molar | GI50 (SW-620; Homo sapiens, SW-620, 48 h, read-out: Log10 GI50 (converted)): < 10 nM | CC50 (SW-620; Homo sapiens, SW-620, 48 h, read-out: Log10 LC50 (converted)): > 100000 nM | Log10 TGI (SW-620; SW-620 (Colon Cancer), PG=0, 48 hour incubation): >−4.00 molar | Log10 TGI (786-0; 786-0 (Renal Cancer), PG=0, 48 hour incubation): −4.88 molar | GI50 (786-0; Homo sapiens, 786-0, 48 h, read-out: Log10 GI50 (converted)): < 10 nM | CC50 (786-0; Homo sapiens, 786-0, 48 h, read-out: Log10 LC50 (converted)): 36300 nM | GI50 (TK-10; Homo sapiens, TK-10, 48 h, read-out: Log10 GI50 (converted)): 32.4 nM | CC50 (TK-10; Homo sapiens, TK-10, 48 h, read-out: Log10 LC50 (converted)): > 100000 nM | Log10 TGI (TK-10; TK-10 (Renal Cancer), PG=0, 48 hour incubation): −4.45 molar | GI50 (MCF7; [3]): < 10 nM | CC50 (MCF7; [4]): > 100000 nM | Log10 TGI (MCF7; MCF7 (Breast Cancer), PG=0, 48 hour incubation): −4.73 molar | GI50 (MCF7/ADR-RES; [3]): 1120 nM | CC50 (MCF7/ADR-RES; [4]): > 100000 nM | Log10 TGI (MCF7/ADR-RES; MCF7/ADR-RES (Breast Cancer), PG=0, 48 hour incubation): −4.80 molar | GI50 (MDA-MB-231/ATCC; Homo sapiens, MDA-MB-231, 48 h, read-out: Log10 GI50 (converted)): 28.2 nM | CC50 (MDA-MB-231/ATCC; Homo sapiens, MDA-MB-231, 48 h, read-out: Log10 LC50 (converted)): 23400 nM | Log10 TGI (MDA-MB-231/ATCC; MDA-MB-231/ATCC (Breast Cancer), PG=0, 48 hour incubation): −6.13 molar | Log10 TGI (DU-145; DU-145 (Prostate Cancer), PG=0, 48 hour incubation): −7.00 molar | GI50 (DU-145; Homo sapiens, DU-145, 48 h, read-out: Log10 GI50 (converted)): < 10 nM | CC50 (DU-145; Homo sapiens, DU-145, 48 h, read-out: Log10 LC50 (converted)): 37200 nM | Log10 TGI (EKVX; EKVX (Non-Small Cell Lung Cancer), PG=0, 48 hour incubation): −4.29 molar | GI50 (EKVX; Homo sapiens, EKVX, 48 h, read-out: Log10 GI50 (converted)): 398 nM | CC50 (EKVX; Homo sapiens, EKVX, 48 h, read-out: Log10 LC50 (converted)): > 100000 nM | Log10 TGI (HOP-62; HOP-62 (Non-Small Cell Lung Cancer), PG=0, 48 hour incubation): −6.52 molar | GI50 (HOP-62; Homo sapiens, HOP-62, 48 h, read-out: Log10 GI50 (converted)): 14.1 nM | CC50 (HOP-62; Homo sapiens, HOP-62, 48 h, read-out: Log10 LC50 (converted)): 89100 nM | GI50 (NCI-H226; Homo sapiens, NCI-H226, 48 h, read-out: Log10 GI50 (converted)): < 10 nM | CC50 (NCI-H226; Homo sapiens, NCI-H226, 48 h, read-out: Log10 LC50 (converted)): > 100000 nM | Log10 TGI (NCI-H226; NCI-H226 (Non-Small Cell Lung Cancer), PG=0, 48 hour incubation): −4.76 molar | GI50 (NCI-H522; Homo sapiens, NCI-H522, 48 h, read-out: Log10 GI50 (converted)): < 10 nM | CC50 (NCI-H522; Homo sapiens, NCI-H522, 48 h, read-out: Log10 LC50 (converted)): > 100000 nM | Log10 TGI (NCI-H522; NCI-H522 (Non-Small Cell Lung Cancer), PG=0, 48 hour incubation): −5.91 molar
